# According to US10351572B2, “Aryl hydrocarbon receptor antagonists and uses thereof” (Magenta Therapeutics Inc., priority 2017, dated 2019):
# Where “and” joins values, the source holds several entries; their conditions need not be identical. Equal entries are not always repeated. Where two headings read alike, the source gives them in different places.
# Experiments:
# AHR = target: T1, AHR (Homo sapiens, UniProt P35869); test: AHR antagonist assay, HepG2 cells transiently transfected with pGudLuc6.1 luciferase plasmid, Example 9; assay type: cell-based; conditions: luciferase activity 24 hours post-culture
# T1 construct: HepG2 cells transiently transfected with the pGudLuc6.1 plasmid were thawed and 25,000 cells were plated per well; endogenous in cells; host or cells: HepG2
# T1 sequence (P35869 11-848): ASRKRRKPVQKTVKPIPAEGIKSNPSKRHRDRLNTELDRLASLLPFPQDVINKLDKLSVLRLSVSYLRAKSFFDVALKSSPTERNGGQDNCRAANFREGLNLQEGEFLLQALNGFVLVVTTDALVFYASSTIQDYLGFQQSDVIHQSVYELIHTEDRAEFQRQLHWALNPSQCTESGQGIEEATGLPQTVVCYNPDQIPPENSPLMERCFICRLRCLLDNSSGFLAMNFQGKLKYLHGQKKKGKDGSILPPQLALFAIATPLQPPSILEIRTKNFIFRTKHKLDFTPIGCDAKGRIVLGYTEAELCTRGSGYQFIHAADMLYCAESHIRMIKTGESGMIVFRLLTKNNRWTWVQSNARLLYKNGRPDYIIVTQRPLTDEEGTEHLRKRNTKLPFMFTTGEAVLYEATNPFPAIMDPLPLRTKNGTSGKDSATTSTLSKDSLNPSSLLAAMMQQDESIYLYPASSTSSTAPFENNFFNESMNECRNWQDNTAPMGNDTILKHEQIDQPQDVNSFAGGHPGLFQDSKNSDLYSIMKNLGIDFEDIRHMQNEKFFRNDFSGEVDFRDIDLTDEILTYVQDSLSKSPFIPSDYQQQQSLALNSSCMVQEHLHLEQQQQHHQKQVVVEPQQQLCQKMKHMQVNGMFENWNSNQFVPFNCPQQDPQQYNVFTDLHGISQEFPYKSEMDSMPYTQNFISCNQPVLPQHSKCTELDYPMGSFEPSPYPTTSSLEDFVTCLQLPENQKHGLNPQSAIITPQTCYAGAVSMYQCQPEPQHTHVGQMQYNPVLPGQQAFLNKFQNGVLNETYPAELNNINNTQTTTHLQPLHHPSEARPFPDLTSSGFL
# Protocol: Methods—HepG2 cells transiently transfected with the pGudLuc6.1 plasmid were thawed and 25,000 cells were plated per well and immediately treated the AHR agonist VAF347 (fixed at 40 nM) and/or the indicated AHR antagonists. Luciferase activity was measured 24 hours post-culture, corresponding to endogenous AHR antagonist activity (without VAF347, FIG. 14) or in the presence of VAF347 (FIG. 15). All synthesized compounds show equivalent AHR antagonist activity if not greater than SR1.
# [1] = test system: mobilized peripheral blood CD34+ cells; test: CD34+ hematopoietic stem/progenitor cell expansion (CD34+ frequency and number), Example 9; assay type: cell-based; conditions: dose response beginning at 10 pM, day 7, flow cytometry
# Protocol: To determine the activity of a scale-up batch of Compound (24), individual enantiomers, and two derivatives Compound (27) and Compound (28) were evaluated for i) the ability to expand CD34+ hematopoietic stem/progenitor cells and ii) AHR antagonist activity. The compounds were compared to control AHR antagonist SR1, an additional control AHR antagonist, and stored sample of Compound (24) CD34+ Frequency and Number
# Methods—mobilized peripheral blood CD34+ cells were cultured in the presence of compound, in dose response beginning at 10 pM. CD34+ cell frequency and number was assessed at day 7 by flow cytometry. All synthesized compounds show equivalent expansion capabilities if not greater than SR1.
# [2] = target: T2, aryl hydrocarbon receptor (Homo sapiens, UniProt P35869); test: Aryl hydrocarbon receptor-driven luciferase reporter in transiently transfected HepG2 cells, Example 3; assay type: cell-based; conditions: absence or presence of VAF347 (80 nM); six hours after plating
# T2 construct: HepG2 cells transiently transfected with the pGudLuc6.1 plasmid were thawed and 25,000 cells were plated per well; endogenous in cells; host or cells: HepG2
# T2 sequence (P35869 11-848): T1 sequence (P35869 11-848)
# Protocol: To determine the ability of compounds (5) and (16) to inhibit the activity of the aryl hydrocarbon receptor and to induce the proliferation of hematopoietic stem cells, a series of HSC expansion experiments were conducted. In the first experiment, compounds (5) and (16) were assessed for their capacity to attenuate aryl hydrocarbon receptor signaling. To this end, HepG2 hepatocytes were transiently transfected with a luciferase reporter construct under the control of a promoter responsive to aryl hydrocarbon receptor signal transduction. The cells were plated at a density of 25,000 cells per well in a microtiter plate. The HepG2 cells were immediately treated with compound (5) or (16) in the absence (FIG. 1) or presence (FIG. 2) of the aryl hydrocarbon receptor agonist, VAF347 (80 nM). Luciferase activity was subsequently analyzed six hours after plating.
# [3] = test system: mononuclear peripheral blood cells enriched in CD34+ cells; test: Proliferation of hematopoietic stem cells, percentage of CD34+ cells after seven days, Example 3; assay type: cell-based; conditions: for potency of hematopoietic stem cell expansion compared with SR1: compared with potency reported for SR1; for hematopoietic stem cell growth (percentage of CD34+ cells): seven days following plating
# Protocol: To assess the ability of compounds (5) and (16) to induce the proliferation of hematopoietic stem cells, a population of mononuclear peripheral blood cells enriched in CD34+ cells were plated at a density of 2,350 cells per well (50 μL) in a microtiter plate in the presence of each compound. The percentage of CD34+ hematopoietic stem cells was assessed seven days following the initial plating. […] The compounds of formula (I) and (II) described herein can thus be used to expand hematopoietic stem cells ex vivo in order to obtain sufficient quantities of such cells for in vivo applications.
# NSG mice = test: Transplantation into NSG mice of human hematopoietic stem cells expanded ex vivo with AHR antagonist; blood chimerism and brain microglia engraftment, Example 5; assay type: in vivo; conditions: NSG mice transplanted with cord blood CD34+ cells expanded 10 days with 500 nM AHR antagonist
# Protocol: To investigate the ability of hematopoietic stem cells to differentiate into microglial cells and subsequently engraft in central nervous system tissue, such as the brain of a hematopoietic stem cell transplant recipient, a series of experiments were conducted in which human hematopoietic stem cells were first expanded ex vivo in the presence of an aryl hydrocarbon receptor antagonist (compound (16) or compound (24)) and were subsequently transplanted into NSG mice, in accordance with the scheme shown in FIG. 4. The frequency of human CD45+ cells in the peripheral blood of the mice was then determined, as well as the profile of microglial cells in the brain tissue using flow cytometry and immunohistochemistry techniques. […]
# At the time of thaw, an equal number of cells to the starting cell cultures were injected into NSG mice, sublethally irradiated (200 cGy) 24 hours prior to injection. […] Peripheral blood was harvested by retro-orbital bleeding at approximately weeks 4 and 8 or by cardiac puncture at week 12 and chimerism was assessed by flow cytometry using antibodies against hCD45, mCD45, hCD33, hCD19, hCD3 and a viability dye. […]
# Embedded brains were sectioned at approximately 5 microns and stained with Ku80 (brown) and Iba-1 (red) primary antibodies). Mouse brains were analyzed from each transplanted mouse and five levels were analyzed each. […]
# [4] = VAF347 fixed at 40 nM, read-out: AHR Antagonist Activity in the Presence of VAF347 EC50
# [5] = without VAF347, read-out: Endogenous AHR Antagonist Activity EC50
EC50 (AHR; [4]),EC50 (AHR; [5]) [nM],EC50 ([1]; 168 h) [nM],EC50 [1] [nM],Structure (SMILES),suppression of aryl hydrocarbon receptor activity (luciferase) [2],potency of hematopoietic stem cell expansion compared with SR1 [3],hematopoietic stem cell growth (percentage of CD34+ cells) [3],frequency of hCD45+ cells in peripheral blood (NSG mice),engraftment of hCD45+CD11b+ microglial cells in the brain (NSG mice; brains at 3 months)
13 nM and 11 nM,1,7,,"COCCC(C)c1cnc2c(NCCc3c[nH]c4ccccc34)nc(-c3cncc(F)c3)cn12 (racemic) [Compound (24), 6-(5-fluoropyridin-3-yl)-N-[2-(1H-indol-3-yl)ethyl]-3-(3-methoxy-1-methylpropyl)imidazo[1,2-a]pyrazin-8-amine]",,,,,
12 nM,1,,11,"COCCC(C)c1cnc2c(NCCc3c[nH]c4ccccc34)nc(-c3cncc(F)c3)cn12 (single isomer, unassigned) [Compound (24) - Enantiomer Peak 1, 6-(5-fluoropyridin-3-yl)-N-[2-(1H-indol-3-yl)ethyl]-3-(3-methoxy-1-methylpropyl)imidazo[1,2-a]pyrazin-8-amine]",,,,,
6 nM,0.4,,4,"COCCC(C)c1cnc2c(NCCc3c[nH]c4ccccc34)nc(-c3cncc(F)c3)cn12 (single isomer, unassigned) [Compound (24) - Enantiomer Peak 2, 6-(5-fluoropyridin-3-yl)-N-[2-(1H-indol-3-yl)ethyl]-3-(3-methoxy-1-methylpropyl)imidazo[1,2-a]pyrazin-8-amine]",,,,,
,,,,CCC(C)c1cnc2c(NCCc3c[nH]c4ccccc34)cc(-c3cncc(F)c3)cn12 (centres unmarked) [Compound (5)],capable of suppressing aryl hydrocarbon receptor activity even in the presence of the activator VAF347,potency greater than that reported for StemRegeninl (SR1),capable of potentiating hematopoietic stem cell growth in a dose-dependent manner,,
,,,,CCC(C)c1cnc2c(NCCc3c[nH]c4ccccc34)nc(-c3cncc(F)c3)cn12 (centres unmarked) [Compound (16)],capable of suppressing aryl hydrocarbon receptor activity even in the presence of the activator VAF347,potency greater than that reported for StemRegeninl (SR1),capable of potentiating hematopoietic stem cell growth in a dose-dependent manner,increased frequency of hCD45+ cells in peripheral blood,increased engraftment of hCD45+CD11b+ microglial cells in the brain
9 nM,2,8,,"COCCCC(C)c1cnc2c(NCCc3c[nH]c4ccccc34)nc(-c3cncc(F)c3)cn12 (centres unmarked) [Compound (27), 6-(5-fluoropyridin-3-yl)-N-[2-(1H-indol-3-yl)ethyl]-3-(4-methoxy-1-methylbutyl)imidazo[1,2-a]pyrazin-8-amine]",,,,,
30 nM,2,10,,"CCOCCC(C)c1cnc2c(NCCc3c[nH]c4ccccc34)nc(-c3cncc(F)c3)cn12 (centres unmarked) [Compound (28), 3-(3-ethoxy-1-methylpropyl)-6-(5-fluoropyridin-3-yl)-N-[2-(1H-indol-3-yl)ethyl]imidazo[1,2-a]pyrazin-8-amine]",,,,,
193 nM,33,,112,"CC(C)n1cnc2c(NCCc3ccc(O)cc3)nc(-c3csc4ccccc34)nc21 [SR1, reference compound]",,,,,
